# Source: US20220054469A1, “FARNESOID X RECEPTOR AGONISTS AND USES THEREOF” (Metacrine, Inc., priority 2018, published 2022)
# Target: T1, hFXR (Homo sapiens, UniProt Q96RI1)
# T1 construct: expressed in transfected cells; host or cells: CV-1 cells
# T1 sequence (Q96RI1 1-486): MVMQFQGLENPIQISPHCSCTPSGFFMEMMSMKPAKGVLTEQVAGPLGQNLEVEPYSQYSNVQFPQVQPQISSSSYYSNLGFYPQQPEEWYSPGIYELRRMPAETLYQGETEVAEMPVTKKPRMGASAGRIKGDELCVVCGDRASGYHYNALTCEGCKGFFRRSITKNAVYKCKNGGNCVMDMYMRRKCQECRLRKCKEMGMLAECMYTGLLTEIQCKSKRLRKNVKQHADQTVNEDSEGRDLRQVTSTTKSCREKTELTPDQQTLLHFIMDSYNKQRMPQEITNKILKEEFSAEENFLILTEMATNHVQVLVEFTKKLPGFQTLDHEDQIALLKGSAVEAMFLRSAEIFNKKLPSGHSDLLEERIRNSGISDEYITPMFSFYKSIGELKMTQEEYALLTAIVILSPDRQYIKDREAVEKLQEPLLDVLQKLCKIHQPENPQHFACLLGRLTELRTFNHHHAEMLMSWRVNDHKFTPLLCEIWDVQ
# T1 sequence (P19793 1-462 partner): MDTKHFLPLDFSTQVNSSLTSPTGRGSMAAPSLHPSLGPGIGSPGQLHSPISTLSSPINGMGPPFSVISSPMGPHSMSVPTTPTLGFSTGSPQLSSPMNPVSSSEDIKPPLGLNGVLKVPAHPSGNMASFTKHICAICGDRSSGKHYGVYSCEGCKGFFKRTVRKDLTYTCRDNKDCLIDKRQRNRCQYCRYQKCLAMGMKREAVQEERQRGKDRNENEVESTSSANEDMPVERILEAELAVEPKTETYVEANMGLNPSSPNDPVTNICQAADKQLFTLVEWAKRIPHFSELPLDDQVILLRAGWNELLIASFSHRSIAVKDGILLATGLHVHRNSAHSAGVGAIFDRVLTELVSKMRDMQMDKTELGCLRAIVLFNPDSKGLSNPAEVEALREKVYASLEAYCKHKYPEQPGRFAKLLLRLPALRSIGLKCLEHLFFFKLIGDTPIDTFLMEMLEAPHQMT
# Test: In Vitro FXR Assay (TK)
# Format: cell-based
# Conditions: CV-1 cells transfected with hFXR, hRXR, TK-ECRE-luc and pCMX-YFP; incubated with compound for 18 hrs; luminescence
# Method: Example B-1: In Vitro FXR Assay (TK)
# CV-1 cells were seeded at a density of 2,000,000 cells in a T175 flask with DMEM+10% charcoal double-stripped FBS and incubated at 37° C. in 5% CO2 for 18 h (O/N).
# After 18 h of incubation, the medium in the T175 flask was changed with fresh DMEM+10% charcoal super-stripped serum. In a polypropylene tube, 2500 μL OptiMEM (Life Technologies, Cat #31985-062) was combined with expression plasmids for hFXR, hRXR, TK-ECRE-luc and pCMX-YFP. The tube was then briefly vortexed and incubated at room temperature for 5 minutes. Transfection reagent (X-tremeGENE HP from Roche, Cat #06 366 236 001) was added to the OptiMEM/plasmid mixture vortexed and incubated at room temperature for 20 minutes. Following incubation, the transfection reagent/DNA mixture complex was added to cells in the T175 flask and the cells were incubated at 37° C. in 5% CO2 for 18 h (O/N).
# Compounds were serially diluted in DMSO and added to transfected CV-1 cells. The cells were then incubated for 18 hrs. The next day cells were lysed and examined for luminescence.
row,Compound,EC50 [nM]
1,"CN(C)c1ccc(C23CCC(CN(c4cccc(-c5cnn(C(C)(C)C)c5)c4)C(=O)[C@H]4CC[C@H](CC(=O)O)CC4)(CC2)CC3)cn1 [Compound 2, trans-2-(4-((3-(1-(tert-Butyl)-1H-pyrazol-4-yl)phenyl)((4-(6-(dimethylamino)pyridin-3-yl)bicyclo[2.2.2]octan-1-yl)methyl)carbamoyl)cyclohexyl)acetic acid]",≤ 50
2,"COc1ccc(C23CCC(CN(c4cncc(-c5cnn(C(C)C)c5)c4)C(=O)[C@H]4CC[C@H](CC(=O)O)CC4)(CC2)CC3)cc1C (relative stereo) [Compound 2.11, trans-2-(4-((5-(1-Isopropyl-1H-pyrazol-4-yl)pyridin-3-yl)((4-(4-methoxy-3-methylphenyl)bicyclo[2.2.2]octan-1-yl)methyl)carbamoyl)cyclohexyl)acetic acid]",50 to 1000
3,"COc1ccc([C@H]2CC[C@H](CN(c3cccc(-c4cnn(C(C)(C)C)c4)c3)C(=O)[C@H]3CC[C@H](CCC(=O)O)CC3)CC2)cc1C [Compound 3.03, trans-3-(4-((3-(1-(tert-Butyl)-1H-pyrazol-4-yl)phenyl)((trans-4-(4-methoxy-3-methylphenyl)cyclohexyl)methyl)carbamoyl)cyclohexyl)propanoic acid]",≤ 50
4,"COc1ccc(C23CCC(CN(C(=O)[C@@H]4CCC[C@@H](C(=O)O)C4)c4cc(-c5cnn(C(C)C)c5)ccn4)(CC2)CC3)cc1C (relative stereo) [Compound 3.06, trans-3-((4-(1-Isopropyl-1H-pyrazol-4-yl)pyridin-2-yl)((4-(4-methoxy-3-methylphenyl)bicyclo[2.2.2]octan-1-yl)methyl)carbamoyl)cyclohexanecarboxylic acid]",50 to 1000
5,"COc1ccc([C@H]2CC[C@H](CN(c3cc(-c4cnc(C(C)C)s4)ccn3)C(=O)[C@H]3CC[C@H](CC(=O)O)CC3)CC2)cc1C [Compound 2.12, 2-(trans-4-((4-(2-Isopropylthiazol-5-yl)pyridin-2-yl)((trans-4-(4-methoxy-3-methylphenyl)cyclohexyl)methyl)carbamoyl)cyclohexyl)acetic acid]",≤ 50
6,"COc1ccc([C@H]2CC[C@H](CN(c3cccc(-c4cnn(C(C)C)c4)c3)C(=O)[C@H]3CC[C@H](C(=O)O)CC3)CC2)cc1C [Compound 2.01, trans-4-((3-(1-Isopropyl-1H-pyrazol-4-yl)phenyl)((trans-4-(4-methoxy-3-methylphenyl)cyclohexyl)methyl)carbamoyl) cyclohexanecarboxylic acid]",≤ 50
7,"COc1ccc(C23CCC(CN(c4cc(-c5cnn(C(C)C)c5)ccn4)C(=O)[C@H]4CC[C@@H](C(=O)O)CC4)(CC2)CC3)cc1C [Compound 3.01, cis-4-((4-(1-Isopropyl-1H-pyrazol-4-yl)pyridin-2-yl)((4-(4-methoxy-3-methylphenyl)bicyclo[2.2.2]octan-1-yl)methyl)carbamoyl)cyclohexanecarboxylic acid]",50 to 1000
8,"COc1ccc(C23CCC(CN(c4ccc(F)c(-c5cnn(C(C)C)c5)c4)C(=O)[C@H]4CC[C@H](CC(=O)O)CC4)(CC2)CC3)cc1C [Compound 2.09, trans-2-(4-((4-Fluoro-3-(1-isopropyl-1H-pyrazol-4-yl)phenyl)((4-(4-methoxy-3-methylphenyl)bicyclo[2.2.2]octan-1-yl)methyl)carbamoyl)cyclohexyl)acetic acid]",≤ 50

# More lines, now with the values ahead:
row,EC50 [nM],Compound
1,≤ 50,"COc1ccc(C23CCC(CN(c4cc(-c5cnc(C6CC6)s5)ccn4)C(=O)[C@H]4CC[C@H](CC(=O)O)CC4)(CC2)CC3)cc1C [Compound 4.15, trans-2-(4-((4-(2-Cyclopropylthiazol-5-yl)pyridin-2-yl)((4-(4-methoxy-3-methylphenyl)bicyclo[2.2.2]octan-1-yl)methyl)carbamoyl)cyclohexyl)acetic acid]"
2,50 to 1000,"COc1ccc(C23CCC(CN(c4cc(-n5cnc(C(C)C)c5)ccn4)C(=O)[C@H]4CC[C@H](CC(=O)O)CC4)(CC2)CC3)cc1C [Compound 4.25, trans-2-(4-((4-(4-Isopropyl-1H-imidazol-1-yl)pyridin-2-yl)((4-(4-methoxy-3-methylphenyl)bicyclo[2.2.2]octan-1-yl)methyl)carbamoyl)cyclohexyl)acetic acid]"
3,≤ 50,"COc1ncc(C23CCC(CN(c4cc(-c5cnn(C(C)C)c5)ccn4)C(=O)[C@H]4CC[C@H](CC(=O)O)CC4)(CC2)CC3)cc1C [Compound 4.12, trans-2-(4-((4-(1-Isopropyl-1H-pyrazol-4-yl)pyridin-2-yl)((4-(6-methoxy-5-methylpyridin-3-yl)bicyclo[2.2.2]octan-1-yl)methyl)carbamoyl)cyclohexyl)acetic acid]"
4,50 to 1000,"COc1ccc(C23CCC(CN(c4cc(-c5nnc(C(C)C)o5)ccn4)C(=O)[C@H]4CC[C@H](CC(=O)O)CC4)(CC2)CC3)cc1C [Compound 4.19, trans-2-(4-((4-(5-lsopropyl-1,3,4-oxadiazol-2-yl)pyridin-2-yl)((4-(4-methoxy-3-methylphenyl)bicyclo[2.2.2]octan-1-yl)methyl)carbamoyl)cyclohexyl)acetic acid]"
5,≤ 50,"COc1ccc(C23CCC(CN(c4cccc(-c5cnn(C(C)C)c5)n4)C(=O)[C@H]4CC[C@H](CC(=O)O)CC4)(CC2)CC3)cc1C (relative stereo) [Compound 4.06, trans-2-(4-((6-(1-Isopropyl-1H-pyrazol-4-yl)pyridin-2-yl)((4-(4-methoxy-3-methylphenyl)bicyclo[2.2.2]octan-1-yl)methyl)carbamoyl)cyclohexyl)acetic acid]"
6,50 to 1000,"COc1ccc(C23CCC(CN(c4cc(-n5ccc(C(C)C)n5)ccn4)C(=O)[C@H]4CC[C@H](CC(=O)O)CC4)(CC2)CC3)cc1C [Compound 4.24, trans-2-(4-((4-(3-Isopropyl-1H-pyrazol-1-yl)pyridin-2-yl)((4-(4-methoxy-3-methylphenyl)bicyclo[2.2.2]octan-1-yl)methyl)carbamoyl)cyclohexyl)acetic acid]"
7,≤ 50,"COc1ccc(C23CCC(CN(c4cc(-c5ccn(C(C)C)n5)ccn4)C(=O)[C@H]4CC[C@H](CC(=O)O)CC4)(CC2)CC3)cc1C [Compound 4.23, trans-2-(4-((4-(1-Isopropyl-1H-pyrazol-3-yl)pyridin-2-yl)((4-(4-methoxy-3-methylphenyl)bicyclo[2.2.2]octan-1-yl)methyl)carbamoyl)cyclohexyl)acetic acid]"
8,≤ 50,"COc1ccc(C23CCC(CN(c4cc(-n5cnc(C6CC6)n5)ccn4)C(=O)[C@H]4CC[C@H](CC(=O)O)CC4)(CC2)CC3)cc1C [Compound 4.27, trans-2-(4-((4-(3-Cyclopropyl-1H-1,2,4-triazol-1-yl)pyridin-2-yl)((4-(4-methoxy-3-methylphenyl)bicyclo[2.2.2]octan-1-yl)methyl)carbamoyl)cyclohexyl)acetic acid]"
9,50 to 1000,"COc1ccc(C23CCC(CN(C(=O)[C@@H]4CCC[C@@H](CC(=O)O)C4)c4cc(-c5cnn(C(C)C)c5)ccn4)(CC2)CC3)cc1C (relative stereo) [Compound 5.01, trans-2-(3-((4-(1-Isopropyl-1H-pyrazol-4-yl)pyridin-2-yl)((4-(4-methoxy-3-methylphenyl)bicyclo[2.2.2]octan-1-yl)methyl)carbamoyl)cyclohexyl)acetic acid]"
10,≤ 50,"COc1ccc(C23CCC(CN(c4cc(-c5cnn(C(C)(C)C)c5)ccn4)C(=O)[C@H]4CC[C@H](C(=O)O)CC4)(CC2)CC3)cc1C [Compound 4.03, trans-4-((4-(1-(tert-Butyl)-1H-pyrazol-4-yl)pyridin-2-yl)((4-(4-methoxy-3-methylphenyl)bicyclo[2.2.2]octan-1-yl)methyl)carbamoyl)cyclohexanecarboxylic acid]"
11,50 to 1000,"COc1ccc(C23CCC(CN(c4cc(-c5cnn(C(C)C)c5)ccn4)C(=O)[C@H]4CC[C@@H](CC(=O)O)CC4)(CC2)CC3)cc1C [Compound 5.02, cis-2-(4-((4-(1-Isopropyl-1H-pyrazol-4-yl)pyridin-2-yl)((4-(4-methoxy-3-methylphenyl)bicyclo[2.2.2]octan-1-yl)methyl)carbamoyl)cyclohexyl)acetic acid]"
